Experimental data: US6376209B2, “Increasing the FVII sensitivity of a thromboplastin reagent” (Dade Behring Marburg GmbH, priority 1997, dated 2002)
Read-outs that look alike come from different tables or passages of the source. Where a SMILES comes first, the peptide text is derived from it. [ ]: non-standard residue; d: D form. The star is where a group is joined. Sta = CC(C)C[C@H](N)[C@@H](O)CC(=O)O; Isovaleryl = CC(C)CC(=O)*

Legend:
Experiment in all cases: Quick's thromboplastin time (PT), Schnitger & Gross
Assay type in all cases: biochemical
[1] = system: FVII-deficient plasma; details: for Coagulation time FVII-MF / FVII-sens. FVII-MP/100%: 0.75 sec, incubated 37° C., 90 min; for Coagulation time FVII-MP / FVII sens.: FVII-MP/100%: 0.5 sec
Procedure: (§1) Quick's thromboplastin time (PT) was then determined using a Schnitger & Gross as follows:
(§2) Heat reagents and tubes to 37° C.;
(§3) Introduce […] of control plasma N or FVII-deficient plasma into the tubes;
(§4) Incubate for 1 min in the thermoblock;
(§5) Add 200 μl of thromboplastin and at the same time start the measuring operation; shake the tube briefly and place it in the measuring position of the Schnitger & Gross, and insert the electrode holder up to the limit stop;
(§6) Read off the coagulation time.
(§7) Quick's thromboplastin time (PT) is then determined using a Schnitger & Gross as follows:
(§8) Introduce 100 μl of plasma into the tubes;
(§9) Add 200 μl of thromboplastin and at the same time start the measuring operation;
(§10) shake the tube briefly, place it in the measuring position of the Schnitger & Gross, and insert the electrode holder up to the limit stop;

[2] = system: Standard human plasma
Procedure: as §1, §2, §3, §4, §5, §6, §7, §8, §9, §10

[3] = system: control plasma Patho II
Procedure: as §7, §2, §8, §4, §9, §10, §6
The spread was calculated from the ratio of the coagulation times for the dilution of the StHPl and the StHPl, and the FVII sensitivity was calculated from the ratio of the coagulation times for FVII-MP and STHPL.
Standard human plasma, the control plasma Patho II and an FVII-deficient plasma were used as samples. The reagents were stored at 4° C. and 37° C. and the coagulation time was repeated after 7 and 14 days. The spread was calculated from the ratio of the coagulation times of the Patho II and the StHPl, and the FVII sensitivity was calculated from the ratio of the coagulation times for FVII-MP and the STHPL.

[4] = 0.00003% added to Thromborel S heated 120° C.
[5] = 0.0003% added to Thromborel S heated 120° C.
[6] = 0.003% added to Thromborel S heated 120° C.
[7] = 0.03% added to Thromborel S heated 120° C.
[8] = 0.3% added to Thromborel S heated 120° C.
[9] = 0.5 mg/l added to Thromborel S heated 95° C.
[10] = 0.7 mg/l added to Thromborel S heated 95° C.
[11] = 0.7 mg/l added to Thromborel S heated 95° C., 0.5 sec

OO [H2O2] was tested, and the “Coagulation time FVII-MF” value [1, 4] was 132 s, the “FVII-sens. FVII-MP/100%” value [1, 4] was 11.1 and the “Coagulation time FVII-MF” value [1, 5] was 133 s. For the same compound, the “FVII-sens. FVII-MP/100%” value [1, 5] was 11.4, the “Coagulation time FVII-MF” value [1, 6] was 139 s and the “FVII-sens. FVII-MP/100%” value [1, 6] was 12.2. The “Coagulation time FVII-MF” value [1, 7] was 143 s, the “FVII-sens. FVII-MP/100%” value [1, 7] was 12.4 and the “Coagulation time FVII-MF” value [1, 8] was 156 s. The “FVII-sens. FVII-MP/100%” value [1, 8] was 10.4, the “Coagulation time 100%” value ([2]; 0.00003% added to Thromborel S heated 120° C., 0.75 sec, incubated 37° C., 90 min) was 11.9 s and the “Coagulation time 100%” value ([2]; 0.0003% added to Thromborel S heated 120° C., 0.75 sec, incubated 37° C., 90 min) was 11.7 s. The “Coagulation time 100%” value ([2]; 0.003% added to Thromborel S heated 120° C., 0.75 sec, incubated 37° C., 90 min) was 11.4 s, the “Coagulation time 100%” value ([2]; 0.03% added to Thromborel S heated 120° C., 0.75 sec, incubated 37° C., 90 min) was 11.5 s and the “Coagulation time 100%” value ([2]; 0.3% added to Thromborel S heated 120° C., 0.75 sec, incubated 37° C., 90 min) was 15 s.
In the case of CC(=O)N[C@@H](CC(C)C)C(=O)N[C@@H](CC(C)C)C(=O)N[C@H](C=O)CCCNC(=N)N [Leupeptin], the “Coagulation time FVII-MP” value [1, 9] is reported as 121 s, the “FVII sens.: FVII-MP/100%” value [1, 9] is reported as 11.4 and the “Coagulation time 100%” value [2] is reported as 10.6 s. For the same compound, the “Coagulation time Patho II” value [3] was 22.5 s and the “Spread: Patho II/100%” value [3] was 2.1.
In the case of CC(C)CC(=O)N[C@H](C(=O)N[C@H](C(=O)N[C@@H](CC(C)C)[C@@H](O)CC(=O)N[C@@H](C)C(=O)N[C@@H](CC(C)C)[C@@H](O)CC(=O)O)C(C)C)C(C)C [Pepstatin] (Isovaleryl-VV[Sta]A[Sta]-OH), the “Coagulation time FVII-MP” value [1, 10] is reported as 115 s, the “FVII sens.: FVII-MP/100%” value [1, 10] is reported as 10.9 and the “Coagulation time 100%” value [2, 11] is reported as 10.6 s. For the same compound, the “Coagulation time Patho II” value [3, 11] was 21.6 s and the “Spread: Patho II/100%” value [3, 11] was 2.0.
